{"source": "ChEMBL document CHEMBL1156492", "about": "“(R)- and (S)-verapamil differentially modulate the multidrug-resistant protein MRP1” (J Biol Chem, 2007)", "type_in_all_cases": "functional, cell-based", "key": {"BHK-21 [1]": {"tested_on": "BHK-21", "experiment": "Decrease in intracellular glutathione concentration in human MRP1 expressing hamster BHK21 cells", "conditions": "Mesocricetus auratus"}, "BHK-21 [2]": {"tested_on": "BHK-21", "experiment": "Decrease in intracellular glutathione concentration in human MRP1 expressing hamster BHK21 cells at 5 uM", "conditions": "Mesocricetus auratus"}, "BHK-21 [3]": {"tested_on": "BHK-21", "experiment": "Cytotoxicity against human MRP1 expressing hamster BHK21 cells at 10 to 20 uM by MTT assay", "conditions": "Mesocricetus auratus"}, "BHK-21 [4]": {"tested_on": "BHK-21", "experiment": "Cytotoxicity against hamster BHK21 cells by MTT assay", "conditions": "Mesocricetus auratus"}, "BHK-21 [5]": {"tested_on": "BHK-21", "experiment": "Cytotoxicity against human MRP1 expressing hamster BHK21 cells after 72 hrs by MTT assay", "conditions": "Mesocricetus auratus, BHK-21, 72 h"}, "BHK-21 [6]": {"tested_on": "BHK-21", "experiment": "Cytotoxicity against hamster BHK21 cells after 72 hrs by MTT assay", "conditions": "Mesocricetus auratus, BHK-21, 72 h"}}, "note": "Active and inactive are the calls of the source. The rule behind the calls is not given here."}
{"smiles": "COc1ccc(CCN(C)CCC[C@@](C#N)(c2ccc(OC)c(OC)c2)C(C)C)cc1OC", "values": [{"measurement": "Activity", "setting": "BHK-21 [1]", "value": "Active"}, {"measurement": "Activity", "setting": "BHK-21 [2]", "value": "Active"}]}
{"smiles": "COc1ccc(CCN(C)CCC[C@](C#N)(c2ccc(OC)c(OC)c2)C(C)C)cc1OC", "values": [{"measurement": "Activity", "setting": "BHK-21 [1]", "value": "inactive"}]}
{"smiles": "COc1ccc(CCN(C)CCCC(C#N)(c2ccc(OC)c(OC)c2)C(C)C)cc1OC", "note": "(racemic)", "values": [{"measurement": "Activity", "setting": "BHK-21 [3]", "value": "Active"}, {"measurement": "Activity", "setting": "BHK-21 [4]", "value": "inactive"}]}
{"smiles": "CC[C@]1(O)C[C@H]2CN(CCc3c([nH]c4ccccc34)[C@@](C(=O)OC)(c3cc4c(cc3OC)N(C=O)[C@H]3[C@@](O)(C(=O)OC)[C@H](OC(C)=O)[C@]5(CC)C=CCN6CC[C@]43[C@@H]65)C2)C1", "note": "[VINCRISTINE]", "values": [{"measurement": "IC50", "setting": "BHK-21 [5]", "value": 9.42, "unit": "nM"}, {"measurement": "IC50", "setting": "BHK-21 [6]", "value": 1.51, "unit": "nM"}]}
